Species on record: Oryctolagus cuniculus
Test: In vitro relaxation of precontracted rabbit aortic rings.
Format: functional
Settings: Aorta

SMILES | EC50 [µM]
CC(=O)ON1C(=O)c2ccccc2S1(=O)=O | 52.2
O=C1c2ccccc2S(=O)(=O)N1O | 14.4
O=S(=O)(NO)c1ccc(Cl)cc1 | 1.36
O=S(=O)(NO)c1ccccc1 | 1.03
